This passage reports IC50 results from patent US8017612B2, “Piperazine compound and use thereof as a HCV polymerase inhibitor” (priority 2006, dated 2011).

For test [1], the target named is T1, HCV polymerase (NS5B) type 1a (Hepatitis C virus genotype 1a, UniProt P26664).
T1 construct: made in house; host or cells: Escherichia coli (by the 'similar method' of the 1b enzyme)
Put plainly: Assay of enzyme (HCV polymerase) inhibitory activity, type 1a enzyme. In kind it is biochemical, HCV type 1a (cloned from the blood of patients). The following applies: HCV polymerase inhibitory activity (IC50), 1a, type 1a enzyme 1.5 μg/ml, 25° C., 60 min. An outline of the steps:
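NS5B Δ47 C-term His6 (type 1a, 1.5 μg/ml); substrate RNA 5 μg/ml; ATP/GTP/CTP 50 μM, UTP 2 μM + [5,6-3H]UTP; Tris pH 7.5, MgCl2 5 mM; 25° C, 60 min. TCA/pyrophosphate stop, GF/B filter, scintillation. IC50 vs no-compound control.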

Test [2] deals with T2, HCV polymerase (NS5B) type 1b (Hepatitis C virus genotype 1b, UniProt P26663).
T2 construct: a region encoding NS5B (J Virol 1991 March, 65(3), 1105-13, 544 amino acids after deletion of 47 amino acids on the C-terminal); 6xHis (C); made in house; host or cells: Escherichia coli
Put plainly: Assay of enzyme (HCV polymerase) inhibitory activity, type 1b enzyme. The format is biochemical, HCV BK strain (type 1b). Particulars: HCV polymerase inhibitory activity (IC50), 1b, type 1b enzyme 0.5 μg/ml, 25° C., 60 min. An outline of the steps: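 Rxn: NS5B 1b (BK, ΔC47, His6) 0.5 μg/ml; substrate RNA 5 μg/ml; ATP/GTP/CTP 50 μM, UTP 2 μM + [5,6-3H]UTP; 20 mM Tris pH 7.5, 5 mM MgCl2, 50 mM NaCl, 1 mM EDTA/DTT. 25 °C, 60 min. Stop with TCA/pyrophosphate, filter, scintillation count; IC50 vs. untreated.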

Each structure is given as a SMILES string. pIC50: −log10 of the molar value.

As to `CC(=O)N1CCc2nc(N3CCN(S(=O)(=O)c4ccc(OC(F)(F)F)cc4)[C@@H](C(=O)NCc4ccc(C(C)(C)C)cc4)C3)sc2C1` [Example 589, (R)-4-(5-acetyl-4,5,6,7-tetrahydro-thiazolo[5,4-c]pyridin-2-yl)-1-(4-trifluoromethoxy-benzenesulfonyl)-piperazine-2-carboxylic acid 4-tert-butyl-benzylamide], the pIC50 in test [1] and in test [2] was above 7.00 throughout.

`CCC(F)(F)c1ccc(CNC(=O)[C@H]2CN(C(=O)Cc3ccncn3)CCN2S(=O)(=O)c2ccc(OC(F)(F)F)cc2)cc1` [Example 590, (R)-4-(2-pyrimidin-4-yl-acetyl)-1-(4-trifluoromethoxy-benzenesulfonyl)-piperazine-2-carboxylic acid 4-(1,1-difluoro-propyl)-benzylamide]: the pIC50 in test [1] and in test [2] was above 7.00 throughout.

In the case of `CCC(F)(F)c1ccc(CNC(=O)[C@H]2CN(c3cnc(C#N)cn3)CCN2S(=O)(=O)c2ccc(OC(F)(F)F)cc2)cc1` [Example 591, (R)-5′-cyano-4-(4-trifluoromethoxy-benzenesulfonyl)-3,4,5,6-tetrahydro-2H-[1,2′]bipyrazinyl-3-carboxylic acid 4-(1,1-difluoro-propyl)-benzylamide], the pIC50 in test [1] and in test [2] was above 7.00 each time.

`CCC(F)(F)c1ccc(CNC(=O)[C@H]2CN(c3cnc(-c4nnn[nH]4)cn3)CCN2S(=O)(=O)c2ccc(OC(F)(F)F)cc2)cc1` [Example 592, (R)-5′-(1H-tetrazol-5-yl)-4-(4-trifluoromethoxy-benzenesulfonyl)-3,4,5,6-tetrahydro-2H-[1,2′]bipyrazinyl-3-carboxylic acid 4-(1,1-difluoro-propyl)-benzylamide]: the pIC50 in test [1] and in test [2] was above 7.00 in each case.

Regarding `CC(C)(C)c1ccc(CNC(=O)[C@H]2CN(c3cnc(CN4CCOCC4)cn3)CCN2S(=O)(=O)c2ccc(OC(F)(F)F)cc2)cc1` [Example 593, (R)-5′-morpholin-4-ylmethyl-4-(4-trifluoromethoxy-benzenesulfonyl)-3,4,5,6-tetrahydro-2H-[1,2′]bipyrazinyl-3-carboxylic acid 4-tert-butyl-benzylamide], the pIC50 in test [1] and in test [2] was above 7.00 throughout.

`CN1CCN(Cc2cnc(N3CCN(S(=O)(=O)c4ccc(OC(F)(F)F)cc4)[C@@H](C(=O)NCc4ccc(C(C)(C)C)cc4)C3)cn2)CC1` [Example 594, (R)-5′-(4-methyl-piperazin-1-ylmethyl)-4-(4-trifluoromethoxy-benzenesulfonyl)-3,4,5,6-tetrahydro-2H-[1,2′]bipyrazinyl-3-carboxylic acid 4-tert-butyl-benzylamide]: the pIC50 in test [1] and in test [2] was above 7.00 throughout.

As for `CCC(F)(F)c1ccc(CNC(=O)[C@H]2CN(c3cnc(CN(C)C)cn3)CCN2S(=O)(=O)c2ccc(OC(F)(F)F)cc2)cc1` [Example 595, (R)-5′-dimethylaminomethyl-4-(4-trifluoromethoxy-benzenesulfonyl)-3,4,5,6-tetrahydro-2H-[1,2′]bipyrazinyl-3-carboxylic acid 4-(1,1-difluoro-propyl)-benzylamide], the pIC50 in test [1] and in test [2] was above 7.00 in each case.

As to `CCC(F)(F)c1ccc(CNC(=O)[C@H]2CN(c3nc(NC(C)=O)ns3)CCN2S(=O)(=O)c2ccc(OC(F)(F)F)cc2)cc1` [Example 596, (R)-4-(3-acetylamino-[1,2,4]thiadiazol-5-yl)-1-(4-trifluoromethoxy-benzenesulfonyl)-piperazine-2-carboxylic acid 4-(1,1-difluoro-propyl)-benzylamide], the pIC50 in test [1] and in test [2] was above 7.00 throughout.

As for `CC(C)(C)c1ccc(CNC(=O)[C@H]2CN(c3nc4cc[nH]c(=O)c4s3)CCN2S(=O)(=O)c2ccc(OC(F)(F)F)cc2)cc1` [Example 597, (R)-4-(4-oxo-4,5-dihydro-thiazolo[5,4-c]pyridin-2-yl)-1-(4-trifluoromethoxy-benzenesulfonyl)-piperazine-2-carboxylic acid 4-tert-butyl-benzylamide], the pIC50 in test [1] and in test [2] was above 7.00 each time.

For the compound `CC(=O)N1CCN(S(=O)(=O)c2ccc(OC(F)(F)F)cc2)[C@@H](C(=O)NCc2ccc(-c3ccccn3)s2)C1` [Example 598, (R)-4-acetyl-1-(4-trifluoromethoxy-benzenesulfonyl)-piperazine-2-carboxylic acid (5-pyridin-2-yl-thiophen-2-ylmethyl)-amide], the pIC50 in test [1] and in test [2] was 6.00 to 7.00 throughout.

`CC(=O)N1CCN(S(=O)(=O)c2ccc(OC(F)(F)F)cc2)[C@@H](C(=O)NCc2csc(-c3cccs3)n2)C1` [Example 599, (R)-4-acetyl-1-(4-trifluoromethoxy-benzenesulfonyl)-piperazine-2-carboxylic acid (2-thiophen-2-yl-thiazol-4-ylmethyl)-amide]: the negative logarithm of the IC50 (pIC50) was 6.00 to 7.00 in test [1] and below 6.00 in test [2].

As for `CC(C)(C)c1ccc(CNC(=O)[C@H]2CN(c3nc4c(s3)CN(S(C)(=O)=O)CC4)CCN2S(=O)(=O)c2ccc(OC(F)(F)F)cc2)cc1` [Example 600, (R)-4-(5-methanesulfonyl-4,5,6,7-tetrahydro-thiazolo[5,4-c]pyridin-2-yl)-1-(4-trifluoromethoxy-benzenesulfonyl)-piperazine-2-carboxylic acid 4-tert-butyl-benzylamide], the pIC50 in test [1] and in test [2] was above 7.00 in each case.

As for `CCNC(=O)N1CCc2nc(N3CCN(S(=O)(=O)c4ccc(OC(F)(F)F)cc4)[C@@H](C(=O)NCc4ccc(C(C)(C)C)cc4)C3)sc2C1` [Example 601, 2-[(R)-3-(4-tert-butyl-benzylcarbamoyl)-4-(4-trifluoromethoxy-benzenesulfonyl)-piperazin-1-yl]-6,7-dihydro-4H-thiazolo[5,4-c]pyridine-5-carboxylic acid ethylamide], the pIC50 in test [1] and in test [2] was above 7.00 in each case.

Turning to `CC(C)(C)c1ccc(CNC(=O)[C@H]2CN(c3nc4nc[nH]c(=O)c4s3)CCN2S(=O)(=O)c2ccc(OC(F)(F)F)cc2)cc1` [Example 602, (R)-4-(7-oxo-6,7-dihydro-thiazolo[4,5-d]pyrimidin-2-yl)-1-(4-trifluoromethoxy-benzenesulfonyl)-piperazine-2-carboxylic acid 4-tert-butyl-benzylamide], the pIC50 in test [1] and in test [2] was above 7.00 each time.

In the case of `CC(C)(C)c1ccc(CNC(=O)[C@H]2CN(c3nc(CO)c(C(=O)O)s3)CCN2S(=O)(=O)c2ccc(OC(F)(F)F)cc2)cc1` [Example 603, 2-[(R)-3-(4-tert-butyl-benzylcarbamoyl)-4-(4-trifluoromethoxy-benzenesulfonyl)-piperazin-1-yl]-4-hydroxymethyl-thiazole-5-carboxylic acid], the pIC50 in test [1] and in test [2] was 6.00 to 7.00 each time.

`CCC(F)(F)c1ccc(CNC(=O)[C@H]2CN(c3cnc(CO)c(N)n3)CCN2S(=O)(=O)c2ccc(OC(F)(F)F)cc2)cc1` [Example 604, (R)-6′-amino-5′-hydroxymethyl-4-(4-trifluoromethoxy-benzenesulfonyl)-3,4,5,6-tetrahydro-2H-[1,2′]bipyrazinyl-3-carboxylic acid 4-(1,1-difluoro-propyl)-benzylamide]: the results for the pIC50 in test [1] and in test [2] were 6.00 to 7.00 and above 7.00, respectively.

In the case of `CCC(F)(F)c1ccc(CNC(=O)[C@H]2CN(c3cc(N)ncn3)CCN2S(=O)(=O)c2ccc(OC(F)(F)F)cc2)cc1` [Example 605, (R)-4-(6-amino-pyrimidin-4-yl)-1-(4-trifluoromethoxy-benzenesulfonyl)-piperazine-2-carboxylic acid 4-(1,1-difluoro-propyl)-benzylamide], the pIC50 in test [1] and in test [2] was above 7.00 throughout.

For `COc1nsc(N2CCN(S(=O)(=O)c3ccc(OC(F)(F)F)cc3)[C@@H](C(=O)NCc3ccc(C(C)(C)C)cc3)C2)n1` [Example 606, (R)-4-(3-methoxy-[1,2,4]thiadiazol-5-yl)-1-(4-trifluoromethoxy-benzenesulfonyl)-piperazine-2-carboxylic acid 4-tert-butyl-benzylamide], the pIC50 in test [1] and in test [2] was above 7.00 in each case.

Consider `CCC(F)(F)c1ccc(CNC(=O)[C@H]2CN(C(=O)Nc3cncs3)CCN2S(=O)(=O)c2ccc(OC(F)(F)F)cc2)cc1` [Example 607, (R)-4-(4-trifluoromethoxy-benzenesulfonyl)-piperazine-1,3-dicarboxylic acid 3-[4-(1,1-difluoro-propyl)-benzylamide] 1-thiazol-5-ylamide], for which the pIC50 in test [1] and in test [2] was 6.00 to 7.00 in each case.

For the compound `COc1ccc(CNC(=O)[C@H]2CN(C(C)=O)CCN2S(=O)(=O)c2ccc(OC(F)(F)F)cc2)cc1` [Example 608, (R)-4-acetyl-1-(4-trifluoromethoxy-benzenesulfonyl)-piperazine-2-carboxylic acid 4-methoxy-benzylamide], the negative logarithm of the IC50 (pIC50) in test [1] and in test [2] was 6.00 to 7.00 in each case.

The term pIC50 denotes −log10 of the IC50, conventionally taken in molar units. High values mean a small IC50, low ones a large IC50.
